The test system of one assay is Venturia inaequalis. The experiment in a line: Spore germination test. The assay is classed as cell-based. To be noted: VI, 48 hours. In short, it runs like this:
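Compound from acetone stock mixed into water agar at 40, 10, 2.5 and 1 ppm; plated quadrants inoculated with spore suspension in sterile water. Incubation 48 hours at 24° C, then percentage of germinated spores counted and converted to a germination rating.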

For the next assay, the system named is Alternaria solani. The experiment in a line: Mycelial growth test. The format is cell-based. Conditions: Alternaria solani, 72 h, AS, read-out: Percent Fungus Growth Inhibition.

Take `N#Cc1ccc(Oc2nsnc(Cl)c2=O)cc1` [Compound 10, 3-chloro-5-(4-cyanophenoxy)-4H--1,2,6-thiadiazin-4-one]: in the assay on Venturia inaequalis (1.0 ppm), the “Spore Germination Rating” value is recorded as 0 (0-10). Besides, the “Spore Germination Rating” value in the assay on Venturia inaequalis (2.5 ppm) is 0 (0-10). For the same molecule, in the assay on Venturia inaequalis (10 ppm), the “Spore Germination Rating” value was 0 (0-10). In addition, the “Spore Germination Rating” value in the assay with Venturia inaequalis (40 ppm) is 0 (0-10). Further, in the assay with Alternaria solani, the inhibition at 5 ppm amounted to 54%, the inhibition at 10 ppm turned out to be 79%, the inhibition at 20 ppm is 92% and the inhibition at 40 ppm was found to be 92%.
In the case of `O=c1c(Cl)nsnc1Oc1ccc(F)cc1` [Compound 11, 3-chloro-5-(4-fluorophenoxy)-4H--1,2,6-thiadiazin-4-one], the “Spore Germination Rating” value in the assay on Venturia inaequalis (1.0 ppm) is 4 (80-100). Further, the “Spore Germination Rating” value in the assay with Venturia inaequalis (2.5 ppm) is reported as 1 (10-40). Besides, the “Spore Germination Rating” value in the assay on Venturia inaequalis (10 ppm) is on record as 0 (0-10). For the same molecule, the “Spore Germination Rating” value with Venturia inaequalis (40 ppm) is 0 (0-10). In addition, in the assay with Alternaria solani, the inhibition at 5 ppm was determined as 63%, the inhibition at 10 ppm was found to be 83%, the inhibition at 20 ppm was determined as 100% and the inhibition at 40 ppm was 100%.
On to `O=c1c(Cl)nsnc1Oc1ccc(Cl)cc1` [Compound 12, 3-chloro-5-(4-chlorophenoxy)-4H--1,2,6-thiadiazin-4-one], for which the “Spore Germination Rating” value in the assay with Venturia inaequalis (1.0 ppm) is 1 (10-40). The “Spore Germination Rating” value in the assay on Venturia inaequalis (2.5 ppm) is listed as 0 (0-10). Besides, the “Spore Germination Rating” value with Venturia inaequalis (10 ppm) is 0 (0-10). In the assay with Venturia inaequalis (40 ppm), the “Spore Germination Rating” value is 0 (0-10). In the assay with Alternaria solani, the inhibition at 5 ppm was determined as 31%, the inhibition at 10 ppm stood at 31%, the inhibition at 20 ppm was found to be 63% and the inhibition at 40 ppm was 100%.
With `O=c1c(Cl)nsnc1Oc1cccc(Cl)c1` [Compound 13, 3-chloro-5-(3-chlorophenoxy)-4H--1,2,6-thiadiazin-4-one], the “Spore Germination Rating” value in the assay on Venturia inaequalis (1.0 ppm) is given as 1 (10-40); in the assay on Venturia inaequalis (2.5 ppm) it was 0 (0-10); in the assay with Venturia inaequalis (10 ppm), 0 (0-10); in the assay on Venturia inaequalis (40 ppm), 0 (0-10). For the same molecule, the inhibition at 5 ppm in the assay on Alternaria solani is 45%. In addition, in the assay with Alternaria solani, the inhibition at 10 ppm came to 59%. Further, in the assay with Alternaria solani, the inhibition at 20 ppm is 86%. The inhibition at 40 ppm in the assay on Alternaria solani turned out to be 100%.
Turning to `O=c1c(Cl)nsnc1Oc1ccccc1Cl` [Compound 14, 3-chloro-5-(2-chlorophenoxy)-4H--1,2,6-thiadiazin-4-one], the “Spore Germination Rating” value in the assay with Venturia inaequalis (1.0 ppm) is 0 (0-10). Besides, the “Spore Germination Rating” value in the assay on Venturia inaequalis (2.5 ppm) is 0 (0-10). Moreover, in the assay on Venturia inaequalis (10 ppm), the “Spore Germination Rating” value is 0 (0-10). Also, the “Spore Germination Rating” value with Venturia inaequalis (40 ppm) is 0 (0-10). Also, in the assay with Alternaria solani, the inhibition at 5 ppm is 86%, the inhibition at 10 ppm was found to be 79%, the inhibition at 20 ppm amounted to 100% and the inhibition at 40 ppm is 100%.
As to `O=c1c(Cl)nsnc1Oc1ccc(Br)cc1` [Compound 15, 3-chloro-5-(4-bromophenoxy)-4H--1,2,6-thiadiazin-4-one], the “Spore Germination Rating” value in the assay with Venturia inaequalis (1.0 ppm) is given as 0 (0-10). In addition, the “Spore Germination Rating” value with Venturia inaequalis (2.5 ppm) was 0 (0-10). For the same molecule, the “Spore Germination Rating” value with Venturia inaequalis (10 ppm) is 0 (0-10). The “Spore Germination Rating” value in the assay on Venturia inaequalis (40 ppm) was 0 (0-10). Also, in the assay with Alternaria solani, the inhibition at 5 ppm came out at 54%, the inhibition at 10 ppm was 66%, the inhibition at 20 ppm stood at 66% and the inhibition at 40 ppm amounted to 75%.
As for `O=c1c(Cl)nsnc1Oc1ccc(Cl)c(Cl)c1` [Compound 16, 3-chloro-5-(3,4-dichlorophenoxy)-4H--1,2,6-thiadiazin-4-one], the “Spore Germination Rating” value in the assay on Venturia inaequalis (1.0 ppm) was 0 (0-10). In the assay with Venturia inaequalis (2.5 ppm), the “Spore Germination Rating” value was 0 (0-10). Moreover, the “Spore Germination Rating” value with Venturia inaequalis (10 ppm) is reported as 0 (0-10). Besides, the “Spore Germination Rating” value in the assay with Venturia inaequalis (40 ppm) is given as 0 (0-10). In addition, in the assay on Alternaria solani, the inhibition at 5 ppm was 38%, the inhibition at 10 ppm is 50%, the inhibition at 20 ppm was 56% and the inhibition at 40 ppm is 50%.
Take `O=c1c(Cl)nsnc1Oc1ccc(Cl)cc1Cl` [Compound 17, 3-chloro-5-(2,4-dichlorophenoxy)-4H--1,2,6-thiadiazin-4-one]: the “Spore Germination Rating” value in the assay with Venturia inaequalis (1.0 ppm), in the assay with Venturia inaequalis (2.5 ppm), in the assay on Venturia inaequalis (10 ppm) and with Venturia inaequalis (40 ppm) was 0 (0-10) each time. Further, in the assay on Alternaria solani, the inhibition at 5 ppm stood at 79%. Further, in the assay on Alternaria solani, the inhibition at 10 ppm amounted to 72%. Further, the inhibition at 20 ppm in the assay on Alternaria solani stood at 93%. Further, the inhibition at 40 ppm with Alternaria solani stood at 100%.

Usually inhibition stands for the relative decrease from the control value, in per cent.

The values are drawn from patent publication US4450269A, “Mono-5-substituted-3-chloro-4H-1,2,6-thiadiazin-4-one antifungal agents” (FMC Corporation, priority 1980, dated 1984).
